Assay results from patent publication US6291467A, “Heteroaromatic derivatives” (priority 2000, dated 2001).
Where a name gives a salt, the structure may show the parent alone.

Key:
[1] = target: T1, human D4.2 receptor (Homo sapiens, UniProt P21917, DEL265-296); assay: Dopamine D4 Receptor Binding Assay (displacement of [^3 H]spiperone); conditions: human D4.2 in CHO cell membranes, pH 7.4, 27° C., 2 hours
T1 sequence (P21917 with tags, fused parts or gaps DEL265-296): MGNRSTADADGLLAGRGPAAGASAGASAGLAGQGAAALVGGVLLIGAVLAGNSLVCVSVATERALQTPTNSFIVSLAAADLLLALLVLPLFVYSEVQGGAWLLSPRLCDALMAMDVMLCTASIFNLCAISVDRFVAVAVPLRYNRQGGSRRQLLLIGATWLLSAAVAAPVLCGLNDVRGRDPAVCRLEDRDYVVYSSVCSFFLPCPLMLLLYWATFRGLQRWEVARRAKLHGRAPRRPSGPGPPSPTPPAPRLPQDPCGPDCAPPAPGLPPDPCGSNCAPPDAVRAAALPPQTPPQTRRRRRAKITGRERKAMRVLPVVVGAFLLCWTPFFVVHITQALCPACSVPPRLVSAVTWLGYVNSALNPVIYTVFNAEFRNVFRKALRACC
Protocol: 1. Dopamine D4 Receptor Binding Assay
Chinese hamster ovarium (CHO) cell membranes wherein human D4.2 receptor was expressed were used as a receptor preparation.
[^3 H]spiperone was used as [^3 H]-labeled ligand.
A binding reaction using the [^3 H]-labeled ligand was carried out according to the following method as described in Eur. J. Pharmacol., 233, 173(1993).
Dopamine D4.2 Receptor Binding Assay: The CHO cell membranes wherein human D4.2 receptor was expressed, [^3 H]spiperone ([…]) and each test drug were reacted in 50 mM Tris-hydrochloric acid buffer (pH 7.4) containing 5 mM EDTA, 1.5 mM CaCl2, 5 mM KCl and 120 mM NaCl at 27° C. for 2 hours.
After completion of the reaction, the reaction solution was filtered by suction through a glass filter (GF/B), and the radioactivity on the filter was measured by a liquid scintillation spectrometer.
The binding under the reaction in the presence of 10 μM haloperidol was defined as non-specific binding of [^3 H]spiperone, and the difference between the total binding and the non-specific binding was defined as specific binding.

[2] = target: Dopamine D2 Receptor (Rattus norvegicus, UniProt P61169); assay: Dopamine D2 Receptor Binding Assay (displacement of [^3 H]raclopride); conditions: rat striatum membrane, [^3 H]raclopride (1 nM), 25° C., an hour
Protocol: 2. Dopamine D2 Receptor Binding Assay
Rat striatum membrane was used as a receptor preparation.
[^3 H]raclopride was used as [^3 H]-labeled ligand.
A binding reaction using the [^3 H]-labeled ligand was carried out according to the following method as described in Mol. J. Pharmacol., 43, 749(1993).
Preparation of Receptor Preparation: Rat striatum was homogenized in 50 mM Tris-hydrochloric acid buffer (pH 7.4), centrifuged at 48,000×g, and the precipitate was washed once with a Tris-hydrochloric acid buffer. The precipitate was suspended in 50 mM Tris-hydrochloric acid buffer (pH 7.4) containing 120 mM NaCl, 1.5 mM KCl, 2 mM CaCl2 and 1 mM MgCl2 to give a membrane preparation.
Dopamine D2 Receptor Binding Assay: The membrane preparation (0.5 mg of protein/ml), [^3 H]raclopride (1 nM) and each test drug were reacted at 25° C. for an hour.
After completion of the reaction, the reaction solution was filtered by suction through a glass filter (GF/B), and the radioactivity on the filter was determined by a liquid scintillation spectrometer.
The binding under the reaction in the presence of 10 μM haloperidol was defined as non-specific binding of [^3 H]raclopride, and the difference between total binding and non-specific binding was defined as specific binding.

[3] = tested on: dopamine D4 receptors; conditions: Nature, 350, 610-614 (1991); cited from earlier work
[4] = Summary and Clinical Data, Sandoz, Canada Inc. (1990); cited from earlier work
[5] = tested on: drug-resistant schizophrenia and negativism; conditions: clinical investigation, Arch. Gen. Psych., 45, 789-796 (1988); cited from earlier work

Dopamine D2 Receptor, sequence (P61169 whole entry): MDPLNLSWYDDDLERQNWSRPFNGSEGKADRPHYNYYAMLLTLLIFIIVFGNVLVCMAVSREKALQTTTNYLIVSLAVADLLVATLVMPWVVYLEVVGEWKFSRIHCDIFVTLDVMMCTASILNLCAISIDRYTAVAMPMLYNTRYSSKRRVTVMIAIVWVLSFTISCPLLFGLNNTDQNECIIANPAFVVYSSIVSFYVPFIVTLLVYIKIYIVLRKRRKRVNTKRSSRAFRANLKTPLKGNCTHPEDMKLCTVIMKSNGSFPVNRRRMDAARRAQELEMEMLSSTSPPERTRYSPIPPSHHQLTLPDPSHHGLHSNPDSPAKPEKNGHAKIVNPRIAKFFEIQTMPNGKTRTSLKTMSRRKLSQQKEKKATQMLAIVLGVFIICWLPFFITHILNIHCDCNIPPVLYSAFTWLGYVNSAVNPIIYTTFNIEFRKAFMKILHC

IC50 [1] | IC50 [2] | Compound | further results
1.23 nM | 152 nM | Fc1ccc(C=C2CCN(CCc3cn[nH]c3-c3ccc(F)cc3)CC2)cc1 [Compound A-01] | 
1.12 nM | 32 nM | Fc1ccc(-c2[nH]ncc2CCN2CCC(=Cc3cccc(F)c3)CC2)cc1 [Compound A-02] | 
0.85 nM | 26.6 nM | Fc1ccc(-c2[nH]ncc2CCN2CCC(=Cc3ccccc3F)CC2)cc1 [Compound A-03, 5-(4-fluorophenyl)-4-[2-[4-(2-fluorobenzylidene)piperidin-1-yl]ethyl]pyrazole oxalate] | 
1.96 nM | 55.9 nM | Cc1ccc(-c2[nH]ncc2CCN2CCC(=Cc3ccc(F)cc3)CC2)cc1 [Compound A-04] | 
2.85 nM | 171 nM | Cc1ccc(C=C2CCN(CCc3cn[nH]c3-c3ccc(F)cc3)CC2)cc1 [Compound A-06] | 
1.12 nM | 61.4 nM | CSc1nc(-c2ccc(F)cc2)c(CCN2CCC(=Cc3cccc(F)c3)CC2)[nH]1 [Compound A-08] | 
2.85 nM | 107 nM | O=C(c1ccc(F)cc1)C1CCN(CCc2sc(O)nc2-c2ccc(F)cc2)CC1 [Compound A-09] | 
1.96 nM | 73.9 nM | Oc1nc(-c2ccc(F)cc2)c(CCN2CCC(=Cc3cccc(F)c3)CC2)s1 [Compound A-10, 2-hydroxy-4-(4-fluorophenyl)-5-[2-[4-(3-fluorobenzylidene)piperidin-1-yl]ethyl]thiazole] | 
2.15 nM | 359 nM | Fc1ccc(-c2ncncc2CCN2CCC(=Cc3ccccc3F)CC2)cc1 [Compound A-12, 4-(4-fluorophenyl)-5-[2-[4-(2-fluorobenzylidene)piperidin-1-yl]ethyl]pyrimidine dihydrochloride] | 
1.35 nM | > 1000 nM | Fc1ccc(-c2nc(S)ncc2CCN2CCC(=Cc3ccccc3F)CC2)cc1 [Compound A-13, 4-(4-fluorophenyl)-5-[2-[4-(2-fluorobenzylidene)piperidin-1-yl]ethyl]-2-mercaptopyrimidine] | 
1.96 nM | 129 nM | Nc1ncc(CCN2CCC(=Cc3ccccc3F)CC2)c(-c2ccc(F)cc2)n1 [Compound A-16] | 
 |  | CN1CCN(C2=Nc3cc(Cl)ccc3Nc3ccccc32)CC1 [clozapine] | affinity for dopamine D4 receptors relative to dopamine D2 receptors [3]: higher than that for dopamine D2 receptors; blood disorder (agranulocytosis) [4]: serious defect of causing blood disorder called agranulocytosis; death from agranulocytosis [4]: cases of death therefrom have been reported; effect on drug-resistant schizophrenia and negativism [5]: effective on drug-resistant schizophrenia and negativism; extrapyramidal diseases [5]: hardly causes extrapyramidal diseases
